Results from US7714146B2, “Azulene-oxindole compounds as multiple-kinase inhibitors and useful as anticancer agents” (Industrial Technology Research Institute, priority 2006, dated 2010).

Tests used:
Assay type in all cases: biochemical
[1] = biological target: T1, human c-KIT (Thr544-Val976) (Homo sapiens, UniProt P10721); assay: c-KIT kinase assay (HTScan kit, DELFIA); details: for inhibition at 0.1 µM: compound at 0.1 μM, read-out: c-KIT 0.1 μM, % of inhibition relative to control; for inhibition at 1 µM: compound at 1 μM, read-out: c-KIT 1 μM, % of inhibition relative to control
T1 construct: human c-KIT (Thr544-Val976); GST (N); purchased Cell Signaling Technology; host or cells: baculovirus expression system
Description: (§1) Compounds 1-100 were treated for their efficacy in inhibiting activities of FLT-3, c-KIT, KDR/Flk-1, PDGFR-beta, EGFR, and PKC kinases by biochemical DELFIA (Dissociation Enhanced Lanthanide FIA) assays according to the procedure described below. The assays were conducted by, Division of Cell Engineering, Biomedical Engineering Research Laboratories, Industrial Technology Research Institute, Bldg. 53, 195, sec. 4, Chung Hsing Rd. Chutung, Hsinchu, Taiwan 310, R.O.C.
(§2) The c-KIT assay was conducted following the protocol described in Protocol for HTScan® c-KIT Kinase Assay Kit (Cell Signaling Technology®). The assay was conducted under the following conditions: c-KIT source: The GST-c-KIT fusion protein was produced using a baculovirus expression system with a construct expressing human c-KIT (Thr544-Val976) with an amino-terminal GST tag, substrate: 1.5 μM This biotinylated peptide contains the residues surrounding Tyr-996 of KDR, vehicle: 1% DMSO, pre-incubation time/temperature: 5 minutes at room temperature, incubation time/temperature: 30 minutes at room temperature, incubation buffer: 60 mM HEPES pH 7.5, 5 mM MgCl2, 5 mM MnCl2, 3 μM Na3VO4, 1.25 mM DTT, 20 μM ATP, and quantitative method: DELFIA® Assay.

[2] = biological target: T2, human VEGFR-2 (Val789-Val1356) (Homo sapiens, UniProt P35968); assay: KDR kinase assay (HTScan VEGFR-2 kit, DELFIA); details: for inhibition at 0.1 µM: compound at 0.1 μM, read-out: KDR 0.1 μM, % of inhibition relative to control; for inhibition at 1 µM: compound at 1 μM, read-out: KDR 1 μM, % of inhibition relative to control
T2 construct: human VEGFR-2 (Val789-Val1356); GST (N); purchased Cell Signaling Technology; host or cells: baculovirus expression system
Description: as §1
as §2, with “The KDR” for “The c-KIT”, “HTScan® VEGFR-2” for “HTScan® c-KIT”, “conditions: KDR” for “conditions: c-KIT”, “The GST-Kinase” for “The GST-c-KIT”, “human VEGFR-2 (Val789-Val1356) (GenBank Accession No. NM_002253)” for “human c-KIT (Thr544-Val976)”, “μM Gastrin Precursor Biotinylated Peptide (with Tyr87 as phosphorylation site),” for “μM This biotinylated peptide contains the residues surrounding Tyr-996 of KDR,”

[3] = biological target: T3, human FLT-3 (Arg571-Ser993) (Homo sapiens, UniProt P36888); assay: FLT-3 kinase assay (HTScan kit, DELFIA); details: for inhibition at 0.1 µM: compound at 0.1 μM, read-out: FLT-3 0.1 μM, % of inhibition relative to control; for inhibition at 1 µM: compound at 1 μM, read-out: FLT-3 1 μM, % of inhibition relative to control
T3 construct: human FLT-3 (Arg571-Ser993); GST (N); purchased Cell Signaling Technology; host or cells: baculovirus expression system
T3 sequence (P36888 571-993): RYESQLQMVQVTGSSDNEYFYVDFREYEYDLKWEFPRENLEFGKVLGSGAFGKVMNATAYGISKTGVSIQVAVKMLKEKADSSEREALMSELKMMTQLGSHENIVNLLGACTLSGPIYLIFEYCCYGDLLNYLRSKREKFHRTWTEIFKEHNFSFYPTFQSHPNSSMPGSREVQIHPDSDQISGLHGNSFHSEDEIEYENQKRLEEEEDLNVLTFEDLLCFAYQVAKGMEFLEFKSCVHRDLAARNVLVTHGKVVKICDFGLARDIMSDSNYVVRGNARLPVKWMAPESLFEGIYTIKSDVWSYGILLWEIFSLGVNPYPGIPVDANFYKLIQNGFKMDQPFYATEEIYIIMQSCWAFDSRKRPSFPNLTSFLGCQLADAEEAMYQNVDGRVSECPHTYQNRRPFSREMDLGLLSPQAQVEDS
Description: as §1
as §2, with “FLT-3” for “c-KIT”, “GST-kinase” for “GST-c-KIT”, “FLT-3 (Arg571-Ser993) (GenBank accession No. NM_004119)” for “c-KIT (Thr544-Val976)”, “Gastrin Precursor Biotinylated Peptide (with Tyr87 as phosphorylation site),” for “This biotinylated peptide contains the residues surrounding Tyr-996 of KDR,”

T2 sequence (P35968 789-1356): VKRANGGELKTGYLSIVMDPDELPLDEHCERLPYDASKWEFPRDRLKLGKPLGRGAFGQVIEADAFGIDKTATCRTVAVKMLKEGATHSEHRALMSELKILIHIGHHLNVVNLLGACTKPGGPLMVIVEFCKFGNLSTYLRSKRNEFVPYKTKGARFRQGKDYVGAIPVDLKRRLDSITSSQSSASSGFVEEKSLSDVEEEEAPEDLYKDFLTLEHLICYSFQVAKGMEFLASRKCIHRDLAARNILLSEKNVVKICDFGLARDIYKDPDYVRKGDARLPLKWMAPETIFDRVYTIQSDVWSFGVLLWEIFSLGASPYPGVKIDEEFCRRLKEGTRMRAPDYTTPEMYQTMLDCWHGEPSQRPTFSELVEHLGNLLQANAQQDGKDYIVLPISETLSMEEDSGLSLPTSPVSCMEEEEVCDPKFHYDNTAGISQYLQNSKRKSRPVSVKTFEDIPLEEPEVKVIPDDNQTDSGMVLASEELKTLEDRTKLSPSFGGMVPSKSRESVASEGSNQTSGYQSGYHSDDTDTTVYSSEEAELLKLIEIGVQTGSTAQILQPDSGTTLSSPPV
T1 sequence (P10721 544-976): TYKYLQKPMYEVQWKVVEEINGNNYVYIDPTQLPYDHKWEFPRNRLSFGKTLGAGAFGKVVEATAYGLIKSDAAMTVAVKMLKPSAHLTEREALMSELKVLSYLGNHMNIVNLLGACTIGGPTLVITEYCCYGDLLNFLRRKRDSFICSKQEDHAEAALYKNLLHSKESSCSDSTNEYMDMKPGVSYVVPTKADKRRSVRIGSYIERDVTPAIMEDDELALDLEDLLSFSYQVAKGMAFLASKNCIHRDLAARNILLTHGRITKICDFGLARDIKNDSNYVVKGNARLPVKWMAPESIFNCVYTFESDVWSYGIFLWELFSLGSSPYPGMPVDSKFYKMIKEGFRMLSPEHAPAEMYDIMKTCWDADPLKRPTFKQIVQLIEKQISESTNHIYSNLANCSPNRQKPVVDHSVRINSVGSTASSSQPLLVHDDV

## Cc1cc(C=C2C(=O)Nc3ccc(S(=O)(=O)NCCCN4CCN(C)CC4)cc32)c2cccccc1-2 [Compound 82, 3-(3-Methyl-azulen-1-ylmethylene)-2-oxo-2,3-dihydro-1H-indole-5-sulfonic acid [3-(4-methyl-piperazin-1-yl)-propyl]-amide]
[1]
  inhibition at 0.1 µM: 30.7%
  inhibition at 1 µM: 30.7%
[2]
  inhibition at 0.1 µM: 17.6%
  inhibition at 1 µM: 18.5%
[3]
  inhibition at 0.1 µM: 12.8%
  inhibition at 1 µM: 13.5%

## O=C1Nc2ccc(Cl)cc2/C1=C/c1ccc2cccccc1-2 [Compound 23, 3-Azulen-1-ylmethylene-5-chloro-1,3-dihydro-indol-2-one]
[2]
  inhibition at 0.1 µM: 39.5%
  inhibition at 1 µM: 28.3%
[3]
  inhibition at 0.1 µM: 18.6%
  inhibition at 1 µM: 43.4%

## O=C1Nc2ccc(F)cc2/C1=C/c1c2cccccc-2oc1=O [Compound 62, 5-Fluoro-3-(2-oxo-2H-cyclohepta[b]furan-3-ylmethylene)-1,3-dihydro-indol-2-one]
[1]
  inhibition at 0.1 µM: 45.6%
  inhibition at 1 µM: 45.6%
[2]
  inhibition at 0.1 µM: 21.9%
  inhibition at 1 µM: 35.1%
[3]
  inhibition at 0.1 µM: 68.3%
  inhibition at 1 µM: 74.9%

## CC(C)c1cc(C=C2C(=O)Nc3ccc(F)cc32)c2cccccc1-2 [Compound 81, 5-Fluoro-3-(3-isopropyl-azulen-1-ylmethylene)-1,3-dihydro-indol-2-one]
[1]
  inhibition at 0.1 µM: 48.7%
  inhibition at 1 µM: 48.7%
[2]
  inhibition at 0.1 µM: 33%
  inhibition at 1 µM: 36.6%
[3]
  inhibition at 0.1 µM: 19.1%
  inhibition at 1 µM: 43.5%

## Cc1c2cccccc-2c(C)c1/C=C1/C(=O)Nc2ccc(F)cc21 [Compound 66, 3-(1,3-Dimethyl-azulen-2-ylmethylene)-5-fluoro-1,3-dihydro-indol-2-one]
[1]
  inhibition at 0.1 µM: 33.7%
  inhibition at 1 µM: 33.7%
[2]
  inhibition at 0.1 µM: 14.8%
  inhibition at 1 µM: 40.6%
[3]
  inhibition at 0.1 µM: 15.8%
  inhibition at 1 µM: 19.6%

## CCOC(=O)N1CCC(Nc2ccc3c(c2)NC(=O)/C3=C/c2cc(C)c3c(OCCCN(C)C)ccccc2-3)CC1 [Compound 97, 4-{3-[4-(3-Dimethylamino-propoxy)-3-methyl-azulen-1-ylmethylene]-2-oxo-2,3-dihydro-1H-indol-6-ylamino}-piperidine-1-carboxylic acid ethyl ester]
[1]
  inhibition at 0.1 µM: 30.6%
  inhibition at 1 µM: 30.6%
[2]
  inhibition at 0.1 µM: 30.5%
  inhibition at 1 µM: 41.8%
[3]
  inhibition at 0.1 µM: 19.1%
  inhibition at 1 µM: 23.9%

## COC(=O)c1cc(/C=C2\C(=O)Nc3ccc(F)cc32)c2cccccc1-2 [Compound 76, 3-(5-Fluoro-2-oxo-1,2-dihydro-indol-3-ylidenemethyl)-azulene-1-carboxylic acid methyl ester]
[1]
  inhibition at 0.1 µM: 28.2%
  inhibition at 1 µM: 28.2%

## Cc1[nH]c(/C=C2\C(=O)Nc3ccc(F)cc32)c2ccc(=O)ccc12 [Compound 63, 1-(5-Fluoro-2-oxo-1,2-dihydro-indol-3-ylidenemethyl)-3-methyl-2H-cyclohepta[c]pyrrol-6-one]
[1]
  inhibition at 0.1 µM: 57.1%
  inhibition at 1 µM: 57.1%
[2]
  inhibition at 0.1 µM: 6.7%
  inhibition at 1 µM: 32.2%
[3]
  inhibition at 0.1 µM: 50.5%
  inhibition at 1 µM: 55.7%

## CNS(=O)(=O)c1ccc2c(c1)/C(=C\c1cc(C)c3c(OCCCN(C)C)ccccc1-3)C(=O)N2 [Compound 88, 3-[4-(3-Dimethylamino-propoxy)-3-methyl-azulen-1-ylmethylene]-2-oxo-2,3-dihydro-1H-indole-5-sulfonic acid methylamide]
[1]
  inhibition at 0.1 µM: 19.3%
  inhibition at 1 µM: 19.3%
[2]
  inhibition at 1 µM: 16.8%
[3]
  inhibition at 0.1 µM: 24.2%
  inhibition at 1 µM: 47.3%

## Cc1cc(C=C2C(=O)Nc3ccc(S(=O)(=O)Nc4ccccn4)cc32)c2cccccc1-2 [Compound 77]
[1]
  inhibition at 0.1 µM: 23.4%
  inhibition at 1 µM: 23.4%

## O=C1Nc2ccc(F)cc2/C1=C\c1ccc2cccc-2cc1 [Compound 53, 3-Azulen-6-ylmethylene-5-fluoro-1,3-dihydro-indol-2-one]
[1]
  inhibition at 0.1 µM: 39.8%
  inhibition at 1 µM: 39.8%
[2]
  inhibition at 0.1 µM: 16.3%
  inhibition at 1 µM: 20.1%
[3]
  inhibition at 0.1 µM: 30.6%
  inhibition at 1 µM: 52.7%

## Cc1cc(C=C2C(=O)Nc3ccccc32)c2ccccc(OCCCN(C)C)c1-2 [Compound 98, 3-[4-(3-Dimethylamino-propoxy)-3-methyl-azulen-1-ylmethylene]-1,3-dihydro-indol-2-one]
[1]
  inhibition at 0.1 µM: 60.4%
  inhibition at 1 µM: 60.4%
[2]
  inhibition at 0.1 µM: 38.6%
  inhibition at 1 µM: 80.3%
[3]
  inhibition at 0.1 µM: 46.1%
  inhibition at 1 µM: 85.4%

## COC(=O)C1C2=CC=CC=C(OC)C2=C(/C=C2\C(=O)Nc3ccc(F)cc32)C1OC (stereo not shown) [Compound 69, 3-(5-Fluoro-2-oxo-1,2-dihydro-indol-3-ylidenemethyl)-2,4-dimethoxy-1,2-dihydro-azulene-1-carboxylic acid methyl ester]
[2]
  inhibition at 0.1 µM: 32.9%
  inhibition at 1 µM: 42.5%
[3]
  inhibition at 0.1 µM: 17.2%

## Cc1cc(C=C2C(=O)Nc3cc(C(F)(F)F)ccc32)c2ccccc(OCCCN(C)C)c1-2 [Compound 94, 3-[4-(3-Dimethylamino-propoxy)-3-methyl-azulen-1-ylmethylene]-6-trifluoromethyl-1,3-dihydro-indol-2-one]
[1]
  inhibition at 0.1 µM: 47.6%
  inhibition at 1 µM: 47.6%
[2]
  inhibition at 0.1 µM: 35.8%
  inhibition at 1 µM: 52.4%
[3]
  inhibition at 0.1 µM: 6.5%
  inhibition at 1 µM: 14.4%

## Cc1cc(/C=C2/C(=O)N(Cc3ccc(C#N)cc3)c3ccccc32)c2c(C)ccc(C(C)C)cc1-2 [Compound 74, 4-[3-(5-Isopropyl-3,8-dimethyl-azulen-1-ylmethylene)-2-oxo-2,3-dihydro-indol-1-ylmethyl]-benzonitrile]
[2]
  inhibition at 0.1 µM: 5.1%
  inhibition at 1 µM: 70.9%
[3]
  inhibition at 0.1 µM: 45.8%
  inhibition at 1 µM: 69.4%

## O=C1/C(=C\c2ccc3cccccc2-3)c2ccccc2N1C(c1ccccc1)c1ccccc1 [Compound 4, 3-Azulen-1-ylmethylene-1-benzhydryl-1,3-dihydro-indol-2-one]
[3]
  inhibition at 1 µM: 14.7%

## COc1ccc(CN2C(=O)/C(=C/c3cc(C)c4cc(C(C)C)ccc(C)c3-4)c3ccccc32)cc1 [Compound 73, 3-(5-Isopropyl-3,8-dimethyl-azulen-1-ylmethylene)-1-(4-methoxy-benzyl)-1,3-dihydro-indol-2-one]
[2]
  inhibition at 0.1 µM: 40.4%
  inhibition at 1 µM: 52.4%
[3]
  inhibition at 0.1 µM: 33.9%
  inhibition at 1 µM: 32.8%
